Source: patent publication US20090155338A1, “Chronotherapeutic Ocular Delivery System Comprising a Combination of Prostaglandin and a Beta-Blocker for Treating Primary Glaucoma” (ASTON UNIVERSITY, priority 2005, published 2009)
Where a name gives a salt, the structure may show the parent alone.

How the values were obtained:
[1] = hydrochloride salt, cited from earlier work
[2] = system: IOP; settings: cited from earlier work; for efficiency in decreasing the 24-h IOP: compared with agents that decrease AH production
[3] = cited from earlier work
[4] = cited from earlier work; remark: listed apart in the source
[5] = In vitro delivery of drug from ocular inserts in a humidified Franz-diffusion cell, artificial lachrymal fluid receiver, HPLC; assay type: physicochemical
Excerpt: Delivery is monitored in vitro using a Franz-diffusion cell, with the insert in contact with a dialysis membrane to provide support. A membrane with an appropriate molecular weight cut-off is used to allow the passage of pharmaceutical product but not polymer. The receiver solution is an artificial lachrymal fluid, containing NaHCO3 2.2 g/l; NaCl 6.26 g/l; KCl 1.79 g/l; CaCl2.2H2O 0.0735 g/l; MgCl2.6H2O 0.0964 g/l in distilled water (pH to 7.5 with 0.1 M HCl). The temperature used in the diffusion cells is controlled so the internal temperature is 32° C. (the temperature of the corneal surface). The tops of the diffusion cells are sealed using parafilm and the system equilibrated overnight (to give a humid environment). The insert is weighed, then placed on the dialysis membrane and resealed. Samples of delivered pharmaceutical product are removed from the receiver fluid and replaced with fresh liquid to maintain a constant volume. Pharmaceutical product in the receiver fluid is analysed by HPLC. Samples of 1 ml are withdrawn and replaced at given intervals through the side arm. The insert is placed in the donor at time 0. Samples were analysed using HPLC methods described above. It is recommended that betaxolol is analysed within 24 h, or samples frozen. The quantity of drug which has been released at any given time can be calculated using the following equation: […] wherein: Vr is the volume of receiver (ml) Vs the sample volume C[n] is the concentration in the dissolution medium (mg/l) ΣC[m] is the sum total of previous concentrations (mg/l) Mt is the drug released at time t (mg)

CC(C)NCC(O)COc1ccc(CCOCC2CC2)cc1 (stereo not shown) [Betaxolol]
time of maximum effect ([1]; after topical administration): about 2 hours | onset of action ([1]; topical administration): ≤ 30 min

CCNC(=O)CCC/C=C\C[C@@H]1[C@@H](/C=C/[C@@H](O)CCc2ccccc2)[C@H](O)C[C@@H]1O [bimatoprost]
efficiency in decreasing the 24-h IOP [2]: more efficient in decreasing the 24-h IOP

O=C(O)CCC/C=C\C[C@@H]1[C@@H](CC[C@@H](O)CCc2ccccc2)[C@H](O)C[C@@H]1O [latanoprost acid]
half-life in aqueous humor [3]: 2.8 h

CC(C)OC(=O)CCC/C=C\C[C@@H]1[C@@H](CC[C@@H](O)CCc2ccccc2)[C@H](O)C[C@@H]1O [latanoprost]
efficiency in decreasing the 24-h IOP [2]: more efficient in decreasing the 24-h IOP | solubility in acetone and ethanol ([4]; acetone and ethanol): soluble | solubility in water ([4]; water): insoluble

CC(C)(C)NC[C@H](O)COc1nsnc1N1CCOCC1 [timolol, timolol maleate]
capacity in decreasing IOP at night ([2]; night): reduced capacity in decreasing IOP at night | timolol released by 6 hours from the beginning of the experiment ([5]; laminated travoprost/timolol insert, 6 hours): over 90% | timolol released for the first 5 hours ([5]; laminated travoprost/timolol insert, first 5 hours): essentially no timolol was released

CC(C)OC(=O)CCC/C=C\C[C@@H]1[C@@H](/C=C/[C@@H](O)COc2cccc(C(F)(F)F)c2)[C@H](O)C[C@@H]1O [travoprost]
efficiency in decreasing the 24-h IOP [2]: more efficient in decreasing the 24-h IOP | period over which travoprost was released at a substantially constant rate ([5]; laminated travoprost/timolol insert, humidity, 32° C., FIG. 5): about 8 hours | period over which travoprost was released at a substantially-constant rate ([5]; single layer PEO insert with 10% carbopol, travoprost alone, humidity, 32° C., FIG. 4): about 8 hours
